Experimental data taken from patent US6136815A, “Antiviral 2,4-pyrimidinedione derivatives and process for the preparation thereof” (Korea Research Inst. of Chem. Tech., priority 1996, dated 2000).
In brackets after ≈: the same amount, converted by molar mass. Where two headings read alike, the source gives them in different places.

Columns and labels:
[1] = test system: HIV-1; assay: in vitro anti-HIV-1 assay: inhibition of the virus-induced cytopathic effect in MT-4 cells (MTT); format: cell-based; details: for S. I. (CD50 /ED50): Selectivity index = (CD50 /ED50)
Description: The in vitro anti-HIV-1 assays were based on the inhibition of the virus-induced cytopathic effect in MT-4 cells as described in J. Med. Chem, 34, 349 (1991).
First, MT-4 cells were suspended in a culture medium at a concentration of 1×10^4 cells/ml and infected with 500 TCID50 (50% cell culture infective dose)/well of HIV-1. Immediately after the virus infection, 100 μl of the cell suspension was brought into each well of a flat-bottomed microtiter tray containing various concentrations of the test compounds(1) to (21). After incubating for 4 or 5 days at 37° C., the number of viable cells was determined by the 3-(4,5-dimethylthiazol-2-yl)-2,5-diphenyltetrazolium bromide (MTT) method, as disclosed in J. Virol. Methods, 20, 309 (1988).

[2] = cytotoxicity: viability of mock-infected host (MT-4) cells (MTT); format: cell-based; details: human, Cytotoxic concentration that causes death of MT4 cells by 50%, MTT method, read-out: CD50 (the source's name)
Description: The cytotoxicity of the compounds of the present invention was assessed in parallel with their antiviral activity. It was based on the viability of mock-infected host cells as determined by the MTT methods (see J. Virol. Methods, 20, 309 (1988)). AZT was employed as a comparative compound.

[3] = Human immunodeficiency virus 1, MT4, read-out: ED50
[4] = Human immunodeficiency virus 1, MT4, Effective concentration for the inhibition of the proliferation of HIV by 50%, HIV-1-infected MT-4 cells, 4 or 5 days at 37° C., MTT method, read-out: ED50 (the source's name)

Structure (SMILES)	EC50 [1, 3] [µg/mL]	CC50 [2] [µg/mL]	EC50 [1, 4] [µg/mL]	S. I. (CD50 /ED50) [1]
Cc1cn([C@H]2C[C@H](N=[N+]=[N-])[C@@H](CO)O2)c(=O)[nH]c1=O [AZT, 3'-azido-3'-deoxythymidine, reference compound]	0.00116 (≈ 0.00434 µM)	0.558 (≈ 2.09 µM)		
CCOCn1c(Oc2cc(C)cc(C)c2)c(CC)c(=O)[nH]c1=O [Compound 1, 1-ethoxymethyl-5-ethyl-6-(3',5'-dimethylphenoxy)-2,4-pyrimidinedione]		84.7 (≈ 266 µM)	< 0.001	> 84,680
CCOCn1c(Oc2cc(C)cc(C)c2)c(C(C)C)c(=O)[nH]c1=O [Compound 2, 1-ethoxymethyl-5-isopropyl-6-(3',5'-dimethylphenoxy)-2,4-pyrimidinedione]		21.6 (≈ 64.9 µM)	< 0.00256	> 8,425
CCOCn1c(Oc2ccccc2)c(CC)c(=O)[nH]c1=O [Compound 3, 1-ethoxymethyl-5-ethyl-6-phenoxy-2,4-pyrimidinedione]		16.6 (≈ 57.3 µM)	< 0.001	> 16,630
CCOCn1c(Oc2ccccc2)c(C(C)C)c(=O)[nH]c1=O [Compound 4, 1-ethoxymethyl-5-isopropyl-6-phenoxy-2,4-pyrimidinedione]	0.018 (≈ 0.0591 µM)	92 (≈ 302 µM)		> 5,111
CCc1c(Oc2cc(C)cc(C)c2)n(COCc2ccccc2)c(=O)[nH]c1=O [Compound 5, 1-benzyloxymethyl-5-ethyl-6-(3',5'-dimethylphenoxy)-2,4-pyrimidinedione]		29.7 (≈ 78 µM)	< 0.00256	> 11,585
Cc1cc(C)cc(Oc2c(C(C)C)c(=O)[nH]c(=O)n2COCc2ccccc2)c1 [Compound 6, 1-benzyloxymethyl-5-isopropyl-6-(3',5'-dimethylphenoxy)-2,4-pyrimidinedione]		13.4 (≈ 34 µM)	< 0.00256	> 5,246
CC(C)c1c(Oc2ccccc2)n(COCc2ccccc2)c(=O)[nH]c1=O [Compound 7, 1-benzyloxymethyl-5-isopropyl-6-phenoxy-2,4-pyrimidinedione]		10.2 (≈ 27.9 µM)	< 0.001	> 10,210
CCc1c(Oc2cc(C)cc(C)c2)n(COCCOC(C)=O)c(=O)[nH]c1=O [Compound 8, 1-(2'-acetoxyethoxymethyl)-5-ethyl-6-(3',5'-dimethylphenoxy)-2,4-pyrimidinedione]		9.52 (≈ 25.3 µM)	< 0.00256	> 3,718
CCc1c(Oc2cc(C)cc(C)c2)n(COCCO)c(=O)[nH]c1=O [Compound 9]		35.1 (≈ 105 µM)	0.992 (≈ 2.97 µM)	
CC(=O)OCCOCn1c(Oc2cc(C)cc(C)c2)c(C(C)C)c(=O)[nH]c1=O [Compound 10, 1-(2'-acetoxyethoxymethyl)-5-isopropyl-6-(3',5'-dimethylphenoxy)-2,4-pyrimidinedione]		119 (≈ 304 µM)	0.00351 (≈ 0.00899 µM)	
Cc1cc(C)cc(Oc2c(C(C)C)c(=O)[nH]c(=O)n2COCCO)c1 [Compound 11, 1-(2'-hydroxyethoxymethyl)-5-isopropyl-6-(3',5'-dimethylphenoxy)-2,4-pyrimidinedione]		129 (≈ 370 µM)	0.0107 (≈ 0.0308 µM)	
COCCOCn1c(Oc2cc(C)cc(C)c2)c(C(C)C)c(=O)[nH]c1=O [Compound 12, 1-(2'-methoxyethoxymethyl)-5-isopropyl-6-(3',5'-dimethylphenoxy)-2,4-pyrimidinedione]		126 (≈ 348 µM)	0.0106 (≈ 0.0291 µM)	
CCOCn1c(C(=O)c2cc(C)cc(C)c2)c(CC)c(=O)[nH]c1=O [Compound 13, 1-ethoxymethyl-5-ethyl-6-(3',5'-dimethylbenzoyl)-2,4-pyrimidinedione]		5.86 (≈ 17.7 µM)	< 0.001	> 5,860
CCOCn1c(C(=O)c2cc(C)cc(C)c2)c(C(C)C)c(=O)[nH]c1=O [Compound 14, 1-ethoxymethyl-5-isopropyl-6-(3',5'-dimethylbenzoyl)-2,4-pyrimidinedione]		15.3 (≈ 44.5 µM)	< 0.001	> 15,330
CCOCn1c(C(=O)c2ccccc2)c(CC)c(=O)[nH]c1=O [Compound 15, 1-ethoxymethyl-5-ethyl-6-benzoyl-2,4-pyrimidinedione]		103 (≈ 342 µM)	0.043 (≈ 0.142 µM)	
CCOCn1c(C(=O)c2ccccc2)c(C(C)C)c(=O)[nH]c1=O [Compound 16, 1-ethoxymethyl-5-isopropyl-6-benzoyl-2,4-pyrimidinedione]		88.7 (≈ 280 µM)	0.0116 (≈ 0.0367 µM)	
CCc1c(C(=O)c2cc(C)cc(C)c2)n(COCc2ccccc2)c(=O)[nH]c1=O [Compound 17, 1-benzyloxymethyl-5-ethyl-6-(3',5'-dimethylbenzoyl)-2,4-pyrimidinedione]	< 0.001	1.05 (≈ 2.69 µM)		> 10,550
Cc1cc(C)cc(C(=O)c2c(C(C)C)c(=O)[nH]c(=O)n2COCc2ccccc2)c1 [Compound 18, 1-benzyloxymethyl-5-isopropyl-6-(3',5 '-dimethylbenzoyl)-2,4-pyrimidinedione]		11.9 (≈ 29.3 µM)	< 0.001	> 11,920
CC(C)c1c(C(=O)c2ccccc2)n(COCc2ccccc2)c(=O)[nH]c1=O [Compound 19, 1-benzyloxymethyl-5-isopropyl-6-benzoyl-2,4-pyrimidinedione]	< 0.01	15.4 (≈ 40.8 µM)		> 15,450
Cc1cc(C)cc(C(=O)c2c(C(C)C)c(=O)[nH]c(=O)n2COCCO)c1 [Compound 20]		51.7 (≈ 143 µM)	0.00367 (≈ 0.0102 µM)	
COCCOCn1c(C(=O)c2cc(C)cc(C)c2)c(C(C)C)c(=O)[nH]c1=O [Compound 21, 1-(2'-methoxyethoxymethyl)-5-isopropyl-6-(3',5'-dimethylbenzoyl)-2,4-pyrimidinedione]		121 (≈ 324 µM)	0.0119 (≈ 0.0318 µM)	
